Values joined by “and” are separate entries in the source; they are usually repeats but may differ in a detail not shown here. Equal entries are not always repeated.
Key:
[1] = target: T1, Peroxisome proliferator-activated receptor gamma (Homo sapiens) (UniProt P37231); assay: Agonist activity at PPARgamma in human HepG2 cells assessed as activation of PPRE at 10 ug/ml incubated for 24 hrs by dual luciferase reporter gene assay relative to control; type: cell-based
T1 sequence (whole entry): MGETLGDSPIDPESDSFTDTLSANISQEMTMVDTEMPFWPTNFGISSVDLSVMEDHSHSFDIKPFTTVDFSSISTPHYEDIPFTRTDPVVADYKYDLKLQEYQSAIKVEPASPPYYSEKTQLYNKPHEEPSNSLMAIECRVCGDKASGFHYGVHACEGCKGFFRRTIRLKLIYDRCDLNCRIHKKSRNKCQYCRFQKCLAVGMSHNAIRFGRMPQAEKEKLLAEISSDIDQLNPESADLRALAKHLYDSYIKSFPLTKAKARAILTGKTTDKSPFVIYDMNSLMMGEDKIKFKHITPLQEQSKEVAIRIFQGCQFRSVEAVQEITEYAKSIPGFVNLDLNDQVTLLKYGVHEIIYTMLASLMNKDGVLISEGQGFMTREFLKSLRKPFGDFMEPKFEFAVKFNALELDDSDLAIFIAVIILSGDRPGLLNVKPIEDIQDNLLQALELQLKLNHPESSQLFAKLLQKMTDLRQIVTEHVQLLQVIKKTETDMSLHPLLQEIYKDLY

[2] = target: T1, Peroxisome proliferator-activated receptor gamma (Homo sapiens); assay: Agonist activity at PPARgamma in human HepG2 cells assessed as activation of PPRE at 10 ug/ml incubated for 24 hrs by dual luciferase reporter gene assay relative to pioglitazone; type: cell-based
[3] = species: Rattus norvegicus; assay: Inhibition of rat small intestine alpha-glucosidase at 10 ug/ml using maltose/glucose as substrate incubated for 10 mins followed by substrate addition measured after 10 mins relative to control
[4] = target: Dipeptidyl peptidase 4 (Homo sapiens) (UniProt P27487); assay: Inhibition of recombinant human C-terminal His-tagged DPP-4 (29 to 766 residues) expressed in Sf9 insect cells at 10 ug/ml using dipeptidyl peptidase […] as substrate incubated for 10 mins followed by substrate addition measured after 40 mins by fluorescence assay relative to control
Sequence of Dipeptidyl peptidase 4 (Homo sapiens) (P27487 whole entry, looked up, the tested form may be a part): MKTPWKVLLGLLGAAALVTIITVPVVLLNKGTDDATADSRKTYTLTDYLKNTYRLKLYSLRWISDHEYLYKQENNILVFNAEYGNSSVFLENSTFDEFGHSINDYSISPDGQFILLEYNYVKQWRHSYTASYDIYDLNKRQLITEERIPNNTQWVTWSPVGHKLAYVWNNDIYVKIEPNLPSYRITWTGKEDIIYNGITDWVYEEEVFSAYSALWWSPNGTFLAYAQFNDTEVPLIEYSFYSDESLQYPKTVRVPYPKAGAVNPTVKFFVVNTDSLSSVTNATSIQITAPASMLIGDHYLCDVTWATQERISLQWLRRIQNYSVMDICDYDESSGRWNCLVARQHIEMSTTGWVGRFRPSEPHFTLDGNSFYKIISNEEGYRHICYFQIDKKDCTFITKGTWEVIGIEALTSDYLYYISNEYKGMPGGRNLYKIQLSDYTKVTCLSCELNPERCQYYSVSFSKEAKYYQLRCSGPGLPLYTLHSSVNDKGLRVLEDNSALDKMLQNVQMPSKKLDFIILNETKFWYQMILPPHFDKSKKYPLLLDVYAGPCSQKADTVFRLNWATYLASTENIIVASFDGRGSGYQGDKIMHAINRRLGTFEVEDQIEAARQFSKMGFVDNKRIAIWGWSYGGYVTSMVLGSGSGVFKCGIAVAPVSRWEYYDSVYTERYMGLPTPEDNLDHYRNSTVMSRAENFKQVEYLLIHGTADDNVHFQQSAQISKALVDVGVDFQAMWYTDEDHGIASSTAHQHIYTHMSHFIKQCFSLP

[5] = target: T2, Peroxisome proliferator-activated receptor gamma (Homo sapiens, UniProt P37231); assay: Agonist activity at PPARgamma in human HepG2 cells assessed as activation of PPRE incubated for 24 hrs by dual luciferase reporter gene assay; type: cell-based
T2 sequence (P37231 whole entry): T1 sequence (whole entry)

[6] = target: T1, Peroxisome proliferator-activated receptor gamma (Homo sapiens); assay: Agonist activity at PPARgamma in human HepG2 cells assessed as activation of PPRE at 23.05 umol/L incubated for 24 hrs by dual luciferase reporter gene assay relative to control; type: cell-based
[7] = species: Rattus norvegicus; assay: Inhibition of rat small intestine alpha-glucosidase at 3.74 umol/L using maltose/glucose as substrate incubated for 10 mins followed by substrate addition measured after 10 mins relative to control

Row | Activity [1] | Activity [2] | inhibition [3] | inhibition [4] | EC50 [5] | Activity [6] | inhibition [7] | SMILES
1 | -17.1% | -16.1% |  |  |  |  |  | COCC(=O)Nc1cccc([C@H](NC(=O)OCc2ccccc2)C(=O)OC)c1
2 | 18.3% | 16.5% |  |  |  |  |  | CCC(=O)Nc1cccc([C@H](NC(=O)OCc2ccccc2)C(=O)OC)c1
3 | 24.9% | 21.6% |  |  |  |  |  | COC(=O)[C@@H](NC(=O)OCc1ccccc1)c1cccc(NC(C)=O)c1
4 | 105 to 179% | 100% | 14.6% | 16.1% | 22.4 µM |  |  | COC(=O)[C@@H](NC(=O)OCc1ccccc1)c1cccc(NC(=O)CCl)c1
5 | 11.6% | 11.8% |  |  |  |  |  | COC(=O)[C@@H](NC(=O)OCc1ccccc1)c1cccc(NC(=O)CCCCl)c1
6 | -5.01% | -5.58% |  |  |  |  |  | CCCCOC(=O)[C@@H](NC(=O)OCc1ccccc1)c1cccc(NC(=O)CCl)c1
7 | -17.1% | -17.1% |  |  |  |  |  | CCCOC(=O)[C@@H](NC(=O)OCc1ccccc1)c1cccc(NC(=O)CCl)c1
8 | -18.8% | -17.4% |  |  |  |  |  | CNC(=O)[C@@H](NC(=O)OCc1ccccc1)c1cccc(NC(=O)CCl)c1
9 | -20.1% | -19.3% |  |  |  |  |  | CCNC(=O)[C@@H](NC(=O)OCc1ccccc1)c1cccc(NC(=O)CCl)c1
10 | -3.55% | -3.5% |  |  |  |  |  | COC(=O)[C@@H](NC(=O)OCc1ccccc1)c1cccc(NC(=O)CCCl)c1
11 | 53.5% | 52.8% and 49.1% | 17.7% |  |  |  |  | O=C(CCl)Nc1cccc([C@H](NC(=O)OCc2ccccc2)C(=O)O)c1
12 | -24.8% | -23.9% |  |  |  |  |  | CCOC(=O)[C@@H](NC(=O)OCc1ccccc1)c1cccc(NC(=O)CCl)c1
13 | 12% | 11.2% |  |  |  |  |  | CCCC(=O)Nc1cccc([C@H](NC(=O)OCc2ccccc2)C(=O)OC)c1

The next lines start with the molecule.

Row | SMILES | Activity [1] | Activity [2] | inhibition [3] | inhibition [4] | EC50 [5] | Activity [6] | inhibition [7]
14 | CC(C)(C)OC(=O)N1CCN(CC(=O)Nc2cccc([C@H](NC(=O)OCc3ccccc3)C(=O)O)c2)CC1 | 21.4% | 27.5% | 13.7% | 5.26% |  |  | 
15 | COC(=O)[C@@H](NC(=O)OCc1ccccc1)c1cccc(NC(=O)Cn2cnnn2)c1 | 14.4% | 14.9% |  |  |  |  | 
16 | O=C(Cn1cnc2ccccc21)Nc1cccc([C@H](NC(=O)OCc2ccccc2)C(=O)O)c1 | 3.85% | 4.3% | 0.99% | -0.74% |  |  | 
17 | COC(=O)[C@@H](NC(=O)OCc1ccccc1)c1cccc(NC(=O)CN2C(=O)c3ccccc3C2=O)c1 | 11.9% | 14.6% | 17.5% | 2.17% |  |  | 
18 | COC(=O)[C@@H](NC(=O)OCc1ccccc1)c1cccc(NC(=O)Cn2nnnc2SC)c1 | 19.5% | 22.4% |  |  |  |  | 
19 | COC(=O)[C@@H](NC(=O)OCc1ccccc1)c1cccc(NC(=O)Cn2nnnc2C)c1 | 14.4% | 15.4% |  |  |  |  | 
20 | O=C(CCl)Nc1cccc([C@H](NC(=O)OCc2ccccc2)C(=O)NO)c1 | -5.33% | -4.96% |  |  |  |  | 
21 | COC(=O)[C@@H](NC(=O)OCc1ccccc1)c1cccc(NC(=O)Cn2cnc3ccccc32)c1 | 3.93% | 4.52% | 2.91% | -0.31% |  |  | 
22 | COC(=O)[C@@H](NC(=O)OCc1ccccc1)c1cccc(NC(=O)CSc2nc3ccccc3[nH]2)c1 | 7.66% | -9.41% | 9.26% | 8.99% |  |  | 
23 | COC(=O)[C@@H](NC(=O)OCc1ccccc1)c1cccc(NC(=O)CNc2ccc(S(=O)(=O)Nc3cc(C)on3)cc2)c1 | 18.9% | 27.9% | 11.8% | 5.87% |  |  | 
24 | COC(=O)[C@@H](NC(=O)OCc1ccccc1)c1cccc(NC(=O)CN2CCN(C(=O)OC(C)(C)C)CC2)c1 | -8.27% | -10.9% | 15.5% | -6.12% |  |  | 
25 | O=C(CN1C(=O)c2ccccc2C1=O)Nc1cccc([C@H](NC(=O)OCc2ccccc2)C(=O)O)c1 | 39.9% | 47.4% | 17.8% |  |  |  | 
26 | Cc1cc(NS(=O)(=O)c2ccc(NCC(=O)Nc3cccc([C@H](NC(=O)OCc4ccccc4)C(=O)O)c3)cc2)no1 | 40.6% | 58.8% | 8.89% | 11.1% |  |  | 
27 | O=C(CSc1nc2ccccc2[nH]1)Nc1cccc([C@H](NC(=O)OCc2ccccc2)C(=O)O)c1 | 32.9% | 39.4% | 12.6% | -7.54% |  |  | 
28 | CN(CCO)C(=O)[C@@H](NC(=O)OCc1ccccc1)c1cccc(NC(=O)CCl)c1 | 120% | 124% |  |  | 8.97 µM | 208% | 
29 | OCC(CO)N[C@H]1C[C@](O)(CO)[C@@H](O)[C@H](O)[C@H]1O |  |  |  |  |  |  | 104%
30 | COC(=O)[C@@H](NC(=O)OCc1ccccc1)c1cccc(NC(=O)Cn2nc(C)cc2C)c1 | 1.36% | 1.49% |  |  |  |  | 
